{"source": "patent US8729082B2", "about": "“Substituted imidazoquinoxalines” (Bayer Intellectual Property GmbH, priority 2009, dated 2014)"}
{"target": "T1, human kinase Mps-1 (Homo sapiens, UniProt P33981)", "T1 construct": "N-terminally GST-tagged human full length recombinant Mps-1 kinase; purchased Invitrogen, Karslruhe, Germany PV4071", "T1 sequence (P33981 1-857)": "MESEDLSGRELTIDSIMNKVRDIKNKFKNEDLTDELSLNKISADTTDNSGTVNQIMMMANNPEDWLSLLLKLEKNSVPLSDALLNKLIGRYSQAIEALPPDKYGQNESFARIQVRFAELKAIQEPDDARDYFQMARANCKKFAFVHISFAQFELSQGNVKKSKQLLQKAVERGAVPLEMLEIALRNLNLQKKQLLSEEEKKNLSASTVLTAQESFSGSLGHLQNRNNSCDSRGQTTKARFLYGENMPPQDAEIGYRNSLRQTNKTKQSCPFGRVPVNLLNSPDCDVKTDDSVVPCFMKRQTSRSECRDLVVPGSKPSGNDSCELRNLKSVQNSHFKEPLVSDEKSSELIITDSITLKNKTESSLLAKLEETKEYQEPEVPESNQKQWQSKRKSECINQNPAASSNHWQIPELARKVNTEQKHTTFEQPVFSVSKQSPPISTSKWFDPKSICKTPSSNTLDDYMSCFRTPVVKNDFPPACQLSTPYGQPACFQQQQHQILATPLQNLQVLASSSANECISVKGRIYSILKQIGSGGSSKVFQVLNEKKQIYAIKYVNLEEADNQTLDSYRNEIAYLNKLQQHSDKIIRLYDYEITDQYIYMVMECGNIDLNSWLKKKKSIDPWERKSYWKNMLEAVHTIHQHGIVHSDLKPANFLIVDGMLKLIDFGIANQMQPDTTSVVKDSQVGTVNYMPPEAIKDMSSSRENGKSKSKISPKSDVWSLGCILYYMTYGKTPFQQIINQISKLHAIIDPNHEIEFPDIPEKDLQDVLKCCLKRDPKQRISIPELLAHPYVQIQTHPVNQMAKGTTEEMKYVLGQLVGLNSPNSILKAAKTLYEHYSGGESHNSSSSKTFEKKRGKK", "assay": "Mps-1 kinase assay (HTRF)", "assay_type": "biochemical", "conditions": "lowATP; mean; read-out: Mps1 lowATP mean IC50", "procedure,_shortened": "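HTRF readout: EDTA-stopped reactions incubated 1 h with europium anti-phospho(Ser/Thr) antibody and streptavidin-XLent, emission ratio 665/620 nm after 350 nm excitation. Kinase step: compound pre-bound 15 min to ~1 nM GST-Mps-1, then 60 min at 22 °C with ATP and biotin-peptide substrate; inhibition scaled between no-inhibitor (0%) and no-enzyme (100%) controls.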", "units": {"IC50": "µM"}}
{"compound": "CNC(=O)Nc1ccc(-c2cnc3c(NCC(F)(F)F)nc4ccc(F)cc4n23)cc1", "note": "[Example 2-64, 1-(4-{8-fluoro-4-[(2,2,2-trifluoroethyl)amino]imidazo[1,2-a]quinoxalin-1-yl}phenyl)-3-methylurea]", "IC50": 6.7}
{"compound": "CNC(=O)Nc1ccc(-c2cnc3c(NCCCO)nc4ccc(F)cc4n23)cc1", "note": "[Example 2-65, 1-(4-{8-fluoro-4-[(3-hydroxypropyl)amino]imidazo[1,2-a]quinoxalin-1-yl}phenyl)-3-methylurea]", "IC50": 5.42}
{"compound": "CNC(=O)Nc1ccc(-c2cnc3c(NCCNC(C)=O)nc4ccc(F)cc4n23)cc1", "note": "[Example 2-66, N-{2-[(8-fluoro-1-{4-[(methylcarbamoyl)amino]phenyl}imidazo[1,2-a]quinoxalin-4-yl)amino]ethyl}acetamide]", "IC50": 11.8}
{"compound": "CNC(=O)Nc1ccc(-c2cnc3c(NCCCn4ccnc4)nc4ccc(F)cc4n23)cc1", "note": "[Example 2-67, 1-[4-(8-fluoro-4-{[3-(1H-imidazol-1-yl)propyl]amino}imidazo[1,2-a]quinoxalin-1-yl)phenyl]-3-methylurea]", "IC50": 3.13}
{"compound": "CNC(=O)Nc1ccc(-c2cnc3c(NCc4cccnc4)nc4ccc(F)cc4n23)cc1", "note": "[Example 2-68, 1-(4-{8-fluoro-4-[(pyridin-3-ylmethyl)amino]imidazo[1,2-a]quinoxalin-1-yl}phenyl)-3-methylurea]", "IC50": 2.97}
{"compound": "CNC(=O)Nc1ccc(-c2cnc3c(NCc4ccncc4)nc4ccc(F)cc4n23)cc1", "note": "[Example 2-69, 1-(4-{8-fluoro-4-[(pyridin-4-ylmethyl)amino]imidazo[1,2-a]quinoxalin-1-yl}phenyl)-3-methylurea]", "IC50": 3.7}
{"compound": "CNC(=O)Nc1ccc(-c2cnc3c(NCc4ccco4)nc4ccc(F)cc4n23)cc1", "note": "[Example 2-70, 1-(4-{8-fluoro-4-[(furan-2-ylmethyl)amino]imidazo[1,2-a]quinoxalin-1-yl}phenyl)-3-methylurea]", "IC50": 5.08}
{"compound": "CNC(=O)Nc1ccc(-c2cnc3c(NCCCOC)nc4ccc(F)cc4n23)cc1", "note": "[Example 2-71, 1-(4-{8-fluoro-4-[(3-methoxypropyl)amino]imidazo[1,2-a]quinoxalin-1-yl}phenyl)-3-methylurea]", "IC50": 4.95}
{"compound": "CNC(=O)Nc1ccc(-c2cnc3c(NCc4cnn(C)c4)nc4ccc(F)cc4n23)cc1", "note": "[Example 2-72, 1-[4-(8-fluoro-4-{[(1-methyl-1H-pyrazol-4-yl)methyl]amino}imidazo[1,2-a]quinoxalin-1-yl)phenyl]-3-methylurea]", "IC50": 2.49}
{"compound": "CNC(=O)Nc1ccc(-c2cnc3c(NCCS(N)(=O)=O)nc4ccc(F)cc4n23)cc1", "note": "[Example 2-73, 2-[(8-fluoro-1-{4-[(methylcarbamoyl)amino]phenyl}imidazo[1,2-a]quinoxalin-4-yl)amino]ethanesulfonamide]", "IC50": 9.91}
{"compound": "CNC(=O)Nc1ccc(-c2cnc3c(NCC(O)CO)nc4ccc(F)cc4n23)cc1", "note": "(centres unmarked) [Example 2-74, 1-(4-{4-[(2,3-dihydroxypropyl)amino]-8-fluoroimidazo[1,2-a]quinoxalin-1-yl}phenyl)-3-methylurea]", "IC50": 10.1}
{"compound": "CCCNc1nc2ccc(F)cc2n2c(-c3ccc(C(=O)NC4CC4)c(Cl)c3)cnc12", "note": "[Example 2-75, 2-chloro-N-cyclopropyl-4-[8-fluoro-4-(propylamino)imidazo[1,2-a]quinoxalin-1-yl]benzamide]", "IC50": 1.08}
{"compound": "O=C(NC1CC1)c1ccc(-c2cnc3c(NCCCN4CCOCC4)nc4ccc(F)cc4n23)cc1Cl", "note": "[Example 2-76, 2-chloro-N-cyclopropyl-4-(8-fluoro-4-{[3-(morpholin-4-yl)propyl]amino}imidazo[1,2-a]quinoxalin-1-yl)benzamide]", "IC50": 10.9}
{"compound": "O=C(NC1CC1)c1ccc(-c2cnc3c(NCCCN4CCCC4=O)nc4ccc(F)cc4n23)cc1Cl", "note": "[Example 2-77, 2-chloro-N-cyclopropyl-4-(8-fluoro-4-{[3-(2-oxopyrrolidin-1-yl)propyl]amino}imidazo[1,2-a]quinoxalin-1-yl)benzamide]", "IC50": 10.1}
